Six compounds from patent US20230167094A1, “H4 ANTAGONIST COMPOUNDS” (Heptares Therapeutics Limited, priority 2020, published 2023) can be followed below.

Where only a bound is given, the exact number is not on record here.

One experiment concerns the target hERG (Homo sapiens, UniProt Q12809). The experiment in a line: hERG assay (QPatch automated patch clamp, CHO cells). The class given is cell-based. Conditions: CHO cells stably expressing hERG; 1, 3, 10 and 30 μM; tail current; room temperature; read-out: hERG pIC50 (converted). The procedure:
All experiments were performed on the QPatch automated patch clamp platform.
Series resistance (4-15 MΩ) was compensated by >80%.
A general note: The hERG channel carries a current that helps repolarise heart muscle cells.

In the next experiment the target is T1, human H4 receptor (Homo sapiens, UniProt Q9H3N8).
T1 construct: expressed in transfected cells; host or cells: HEKf cells infected with baculovirus
T1 sequence (Q9H3N8 whole entry): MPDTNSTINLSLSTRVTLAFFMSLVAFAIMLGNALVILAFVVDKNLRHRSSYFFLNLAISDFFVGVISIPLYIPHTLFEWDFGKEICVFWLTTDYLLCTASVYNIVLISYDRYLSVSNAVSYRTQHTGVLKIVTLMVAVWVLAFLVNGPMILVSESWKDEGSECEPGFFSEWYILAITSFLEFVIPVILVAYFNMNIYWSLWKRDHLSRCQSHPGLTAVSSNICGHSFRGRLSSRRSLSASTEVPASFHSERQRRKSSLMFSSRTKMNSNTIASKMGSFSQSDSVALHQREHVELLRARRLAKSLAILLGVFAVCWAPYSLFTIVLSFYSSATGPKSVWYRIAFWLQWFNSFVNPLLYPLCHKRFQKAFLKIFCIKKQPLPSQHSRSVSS
Description: H4 Antagonist Functional Dynamic Mass Redistribution Assay. The note with it: HEKf cells expressing human H4 receptor; antagonist mode vs histamine EC80; pKb by Cheng-Prusoff; read-out: Human H4 DMR fpKb (converted). In kind it is cell-based. The procedure: H4 Antagonist Functional Dynamic Mass Redistribution Assay
HEKf cells were infected using baculovirus expressing the human H4 receptor, plated into fibronectin-coated EPIC plates at a density of 10,000 cells/well and incubated overnight at 37° C. The medium on cells was changed to […] HBSS with 20 mM HEPES per well and 30 nL DMSO were added per well by LabCyte ECHO acoustic dispensing. Following 2 h equilibration at room temperature, 30 nL of H4 ligands prepared in DMSO were stamped by LabCyte ECHO acoustic dispensing into seeded EPIC plates and cellular dynamic mass redistribution was monitored using a Corning EPIC plate reader. Following 45 min measurement, 30 nL/well of histamine EC80 was added and monitored to obtain antagonist assay data. Maximum baseline-corrected responses in pm were used to generate concentration response curves. EC50 values were generated using a 4-parameter logistical fit equation to quantify agonist potencies. Functional antagonist affinity values were generated using the Cheng-Prusoff equation to calculate a pKb value using the antagonist assay data.

Chain of hERG (Q12809 whole entry): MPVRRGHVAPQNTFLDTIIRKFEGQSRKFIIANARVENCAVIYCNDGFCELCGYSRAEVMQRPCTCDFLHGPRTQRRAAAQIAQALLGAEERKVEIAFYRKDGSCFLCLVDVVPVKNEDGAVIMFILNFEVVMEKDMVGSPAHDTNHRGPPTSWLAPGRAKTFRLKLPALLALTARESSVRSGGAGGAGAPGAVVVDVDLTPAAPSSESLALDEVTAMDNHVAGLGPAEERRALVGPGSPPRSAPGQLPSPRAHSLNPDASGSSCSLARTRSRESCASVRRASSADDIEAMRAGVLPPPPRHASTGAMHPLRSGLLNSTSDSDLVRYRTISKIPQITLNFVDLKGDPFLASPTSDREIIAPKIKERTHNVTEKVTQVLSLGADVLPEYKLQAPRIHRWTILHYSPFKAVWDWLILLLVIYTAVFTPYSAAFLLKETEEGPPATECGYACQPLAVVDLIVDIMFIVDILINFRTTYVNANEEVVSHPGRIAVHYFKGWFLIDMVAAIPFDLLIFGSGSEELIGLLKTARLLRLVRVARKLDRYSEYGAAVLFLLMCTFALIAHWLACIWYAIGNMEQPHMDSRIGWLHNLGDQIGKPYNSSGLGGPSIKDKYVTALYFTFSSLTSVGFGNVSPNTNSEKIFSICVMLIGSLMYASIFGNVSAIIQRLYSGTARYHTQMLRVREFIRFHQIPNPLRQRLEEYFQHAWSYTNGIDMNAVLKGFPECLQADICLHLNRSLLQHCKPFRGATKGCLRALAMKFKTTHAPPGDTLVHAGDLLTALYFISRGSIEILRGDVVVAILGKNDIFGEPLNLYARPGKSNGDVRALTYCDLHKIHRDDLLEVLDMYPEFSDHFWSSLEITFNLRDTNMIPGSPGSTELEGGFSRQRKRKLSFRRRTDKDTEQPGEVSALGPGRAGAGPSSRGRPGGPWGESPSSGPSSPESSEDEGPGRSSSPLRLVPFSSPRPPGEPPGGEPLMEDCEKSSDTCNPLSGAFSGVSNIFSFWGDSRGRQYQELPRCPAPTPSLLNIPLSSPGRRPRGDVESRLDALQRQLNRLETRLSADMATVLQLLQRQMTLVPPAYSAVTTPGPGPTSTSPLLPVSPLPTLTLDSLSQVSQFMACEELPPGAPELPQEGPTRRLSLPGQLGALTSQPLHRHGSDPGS

Consider `CNC1CN(c2cc(-c3cn(C(F)F)nc3C)nc(N)n2)C1` [Example 4, 4-(1-(Difluoromethyl)-3-methyl-1H-pyrazol-4-yl)-6-(3-(methylamino)azetidin-1-yl)pyrimidin-2-amine], for which the IC50 at hERG is greater than 100000 nM. Also, the Kb at human H4 receptor was 2.51 nM.

Take `CNC1CN(c2cc(-c3cnn(CCF)c3)nc(N)n2)C1` [Example 10, 4-(1-(2-Fluoroethyl)-1H-pyrazol-4-yl)-6-(3-(methylamino)azetidin-1-yl)pyrimidin-2-amine]: the IC50 at hERG is greater than 100000 nM. Further, at human H4 receptor, the Kb is 5.01 nM.

Turning to `CCc1cc(-c2cc(N3CC(NC)C3)nc(N)n2)n[nH]1` [Example 41, 4-(5-Ethyl-1H-pyrazol-3-yl)-6-(3-(methylamino)azetidin-1-yl)pyrimidin-2-amine], the IC50 at hERG is greater than 31600 nM. In addition, the Kb on human H4 receptor is 7.94 nM.

As to `Cc1cc(C)c2nc(-c3cnc(NCCCC4CCN(C)CC4)nc3C)[nH]c2c1` [Toreforant, reference compound], the IC50 at hERG was 3160 nM. Moreover, the Kb at human H4 receptor is 12.6 nM.

As to `CNC1CN(c2cc(-c3cn(C)nc3C)nc(N)n2)C1` [Example 18, 4-(1,3-Dimethyl-1H-pyrazol-4-yl)-6-(3-(methylamino)azetidin-1-yl)pyrimidin-2-amine], at hERG, the IC50 was greater than 100000 nM. Moreover, at human H4 receptor, the Kb is 7.94 nM.

As to `CNC1CN(c2cc(-c3cc(C)[nH]n3)nc(N)n2)C1` [Example 35, 4-(5-Methyl-1H-pyrazol-3-yl)-6-(3-(methylamino)azetidin-1-yl)pyrimidin-2-amine], on hERG, the IC50 was greater than 31600 nM. Moreover, on human H4 receptor, the Kb was 3.98 nM.
